BigSolDB 2.1

CN1CCN(C(=O)O[C@H]2c3nccnc3C(=O)N2c2ccc(Cl)cn2)CC1
solubility (mole fraction)
Settings	288.15 K	293.15 K	298.15 K	303.15 K	308.15 K	313.15 K	318.15 K	323.15 K	328.15 K
in acetone	0.0013	0.0015	0.0019	0.0023	0.0027	0.0032	0.0037	–	–
in ethanol	0.0002	0.0003	0.0004	0.0004	0.0005	0.0007	0.0009	0.001	0.0012
